Test results from a melting point compilation (Tetko et al.; mined from patent text by program, amines drawn as free bases though some values may be those of a salt).

| Structure (SMILES) | melting point |
| --- | --- |
| Nc1ccc(C23CC2C(=O)N(CC2CCCCC2)C3=O)cc1 (stereo not given) | 125 to 126 °C |
| CCCCc1cnc(C2=NC(C)(C(C)C)C(=O)N2)c(C(=O)O)c1 (stereo not given) | 152 to 154 °C |
| CCCCCCCCCCCCC#CC(F)(CCCCC(=O)O)CCCCC(=O)O | 98 to 100 °C |
| OC1CSC(Oc2ccc(-c3ccnc(F)c3)nc2)C(O)C1O (stereo not given) | 219 °C |
| O=c1nc(-c2ccccn2)sc2cc(Cl)ccc12 | 245 to 246 °C |
| CCOC(=O)c1cnc2n(c1=O)C(C)CC=C2NC (stereo not given) | 141 to 142 °C |
| COc1ccc([C@H](O)[C@@H](Cc2ccc(C(F)(F)F)cc2)C(=O)O)cc1 (racemic) | 113 to 114 °C |
| CCC(=O)NCCC1CCc2c(OC)ccc3ccc(OC)c1c23 (stereo not given) | 111 °C |
| Cc1cc([N+](=O)[O-])c(C)cc1O | 121 to 123 °C |
| NC(=O)c1ccc(Cl)c(Br)c1 | 146 to 147 °C |
| CN1CC(CCCl)Oc2ccc(Cl)cc2C1=O (stereo not given) | 101 to 103 °C |
| CC(C)COP(C)(=O)CC(=O)CNC(=O)OC(C)(C)C (stereo not given) | 65 to 68 °C |
| CCCCCCC(C)(C)c1cc(O)c2c(c1)OC(C)(C)[C@@H]1CC=C(NC(C)=O)C[C@@H]21 (relative stereo) | 186 to 188 °C |
| Cc1oc(-c2ccccc2)nc1COc1ccccc1C=CC=Cc1nnn[nH]1 | 192 to 193 °C |
| CC1(C)CC(c2ccccn2)c2cc(C(N)=O)ccc2O1 (stereo not given) | 96 to 98 °C |
| N#Cc1ccc(-c2ccc(O)c(C=O)c2)cc1 | 144 °C |
| c1ccc(OCCSCc2ncc(-c3ccc(N=C(c4ccccc4)c4ccccc4)cc3)o2)cc1 | 86 to 90 °C |
| CCn1cc(C(=O)O)c(=O)c2cc(F)c(N3CCNC(CF)C3)cc21 (stereo not given) | 177 to 180 °C |
| O=[N+]([O-])c1ccc(CO)c([N+](=O)[O-])c1 | 105 to 110 °C |
| Cc1nc2nc(SCc3ccccc3)nn2c(C)c1C | 134 to 135 °C |
| CC(C)(C)OC(=O)COc1ccc2sc(-c3ccccn3)nc(=O)c2c1 | 183 to 184 °C |
| CCOC(=O)c1cc(OC)c2c(C)c(CCN(CC)CC)c(=O)oc2c1Br | 150 to 151 °C |

| Structure (SMILES) | melting point |
| --- | --- |
| CCOC(=O)c1cnc(Cl)cc1NCc1ccc(OC)c(Cl)c1 | 116 to 118 °C |
| CCOC(=O)c1ccccc1NC(=O)c1oc2nn(C(C)C)c(C)c2c1C | 155 to 158 °C |
| Cc1cc(C[C@H]2NC(=O)O[C@H]2c2ccc(F)cc2)cc(OC(F)(F)C(F)F)c1 (racemic) | 107 to 108 °C |
| Cn1c(=O)c2c(ncn2CCCN2CCN(c3nccnc3Cl)CC2)n(C)c1=O | 205 to 207 °C |
| Cc1c(-c2ccncc2)[nH]c(-c2ccncc2)c1CO | 258 to 261 °C |
| CC(CCCCOCCCc1ccc(N2CCCC2)cc1)NCC(O)c1cc(O)cc(O)c1 (stereo not given) | 57 to 60 °C |
| CC(C)n1cnc(N2CCc3ccccc3CC2)c(C#N)c1=O | 152 to 154 °C |
| CC(C)(C)OC(=O)NCCNC(=O)c1cccc2c1c(C(=O)C(=O)NC1=CC(=O)OC1)cn2Cc1ccc(Cl)cc1 | 218 to 219 °C |
| Cc1ccccc1-c1cccc(F)c1C#N | 57 to 58 °C |
| Cc1cc(=O)oc2cc(N(C)C(=O)C(=O)O)ccc12 | 162 to 164 °C |
| O=C1Cc2cc(F)ccc2N1c1ccc(F)cc1 | 135 to 140 °C |
| OC1CSC(Oc2cc(-c3ccc(F)nc3)ccc2Cl)C(O)C1O (stereo not given) | 185 °C |
| COC(=O)c1c(Cl)cc(C)nc1Oc1c(C)cc(C)cc1C | 127 to 128 °C |
| CNn1cc(C(=O)O)c(=O)c2cc3c(cc21)OCO3 | > 300 °C |
| O=C(O)CCC1(CCC(=O)O)CCCCC(CCC(=O)O)(CCC(=O)O)C1=O | 230 to 232 °C |
| CCCCCCCCCCCCCCOc1ccc(CC(=O)OCC)cc1OC | 40 to 41 °C |
| CCOc1cc(N(CC)CC)ccc1C1(N(c2ccc(N(C)C)cc2)c2ccc(N(C)C)cc2)OC(=O)c2ccccc21 (stereo not given) | 58 to 69 °C |
| COCN1C(C)=C(C(=O)OC)[C@H](c2cccc([N+](=O)[O-])c2)C(C(=O)OCOC(=O)C(C)(C)C)=C1C | 113 to 114 °C |
| CON(C)C(=O)c1ccc(-c2ccc(CBr)cc2)cc1 | 105 to 106 °C |
| CC(=O)NC[C@H]1CN(c2ccc(N3CCC(n4cc(C#N)nn4)CC3)c(F)c2)C(=O)O1 | 148 to 150 °C |
| CCOC(=O)c1[nH]c2cc3c(sc4ccccc43)c(C)c2c1C | 191 to 193 °C |

Second part, the compound after the results:

| melting point | Structure (SMILES) |
| --- | --- |
| 200 °C | CCCCCC(=O)n1c(N)nc2ccccc21 |
| 101 to 104 °C | CCOC(=O)CCN1CCC(OC(c2ccccc2)c2ccc(C)cc2)CC1 (stereo not given) |
| 96 °C | COc1ccccc1C(=O)N(C)Cc1cccc(-c2ccc(CC3SC(=O)NC3=O)cc2)c1 (stereo not given) |
| 83 to 85 °C | CC(NC(=O)OC(C)(C)C)C(=O)NC1CCN(Cc2ccccc2)C1 (stereo not given) |
| 240 to 243 °C | Nc1ncccc1-c1nc2ccc(Cl)nc2n1-c1ccc(CNC(=O)c2cccc(F)c2)cc1 |
| 55 °C | COC(=O)c1ccn2cc(Cc3cccc(F)c3C)c(-c3ccccc3)c2c1 |
| 39 to 40 °C | Fc1ccc(C=Nc2ccccc2)cc1 |
| 168 °C | O=c1ncc(I)cn1COCc1ccc(Cl)cc1 |
| 238 to 239 °C | O=C(O)Cc1ccc(CCN2CCNCC2)cc1 |
| 148 to 150 °C | CCCn1nc2c(N)nc3ccccc3c2c1CC(C)(C)NC(=O)c1ccncc1 |
| 135 to 138 °C | CCCOC1(C)CN(C(=O)Nc2ccc(C(F)(F)F)cc2)N=C1c1ccc(Cl)cc1 (stereo not given) |
| 150 to 151 °C | O=C(NCC1CCCCC1)c1c(Cl)ccc2nc(N3CC(NCCO)C3)ccc12 |
| 204 to 205 °C | CN1CCN(CCn2c3ccccc3c(=NN=C3NCCS3)c3ccccc32)CC1 |
| 186 to 189 °C | NC(=O)NCc1ccc(Cl)cc1 |
| 149 to 151 °C | COc1ccc(S(=O)(=O)Nc2ncnc(Cl)c2Cc2ccccc2OC)cc1 |
| 200 °C | N#Cc1ccc([C@@H]2CN(Cc3ccccc3)C[C@@]23NC(=O)N(c2cc(Cl)cc(Cl)c2)C3=O)cc1 (relative stereo) |
| > 305 °C | CCOC(=O)CNc1c([N+](=O)[O-])cc([N+](=O)[O-])c2ccccc12 |
| 232 to 235 °C | CC(C(O)c1ccc2c(c1)CCCS2)N1CCC(n2c(=O)[nH]c3ccccc32)CC1 (stereo not given) |
| 202 to 203 °C | COc1cc(CCCC2OC(=O)NC2=O)ccc1OCc1csc(/C=C/c2ccccc2)n1 (stereo not given) |
| 81.5 to 82.5 °C | CCN(CC)CCNC(=S)N(CCS(=O)(=O)c1ccccc1)C(C)C |
| 121 to 123 °C | O=C(O)CCC/C=C\[C@@H]1C[C@@H](NS(=O)(=O)c2ccccc2)CN1S(=O)(=O)c1ccc(Cl)cc1 |
| 206 °C | O=C(Nc1ccc(C(=O)N2CCCc3cc(F)ccc32)cc1)c1cc(Cl)cc(Cl)c1 |
| 173 to 175 °C | CC(C)(C)OC(=O)C(N)CCNC(=O)c1ccc2c(c1)C(=O)c1ccccc1C2=O (stereo not given) |
| 72 °C | CCS(=O)(=O)N(C)C1CCN(c2ccccc2)c2ccccc21 (stereo not given) |
| 200 °C | O=C(O)C(ON=c1c2nccc3cccc(c32)n2cccc12)c1ccccc1 (stereo not given) |
| 70 to 72 °C | O=C(NCCSCc1cccc(Br)c1)c1c(Br)cccc1Br |
| 217 to 220 °C | CCNC(=O)CCCC1CCN(Cc2cnc3c(C)c(NC(=O)c4ccc(-c5ccc(F)cc5)cc4)ccc3c2)CC1 |
